According to patent publication US10590123B2, “Pesticidally active amide heterocyclic derivatives with sulphur containing substituents” (SYNGENTA PARTICIPATIONS AG, priority 2014, dated 2020):

Columns and labels:
Format in all cases: in vivo
[1] = tested on: Diabrotica Balteata (Corn Root Worm); test: Example B4: Activity against Diabrotica balteata, sprayed maize sprouts; conditions: 96 h, application rate 200 ppm, L2 larvae, 4 days after infestation, read-out: effect in at least one of the two categories (mortality or growth inhibition)
Method: Example B4: Activity Against Diabrotica Balteata (Corn Root Worm)
Maize sprouts, placed on an agar layer in 24-well microtiter plates were treated with aqueous test solutions prepared from 10′000 ppm DMSO stock solutions by spraying. After drying, the plates were infested with L2 larvae (6 to 10 per well). The samples were assessed for mortality and growth inhibition in comparison to untreated samples 4 days after infestation.

[2] = tested on: Spodoptera littoralis (Egyptian Cotton Leaf Worm); test: Example B1: Activity against Spodoptera littoralis, sprayed cotton leaf discs; conditions: foliar, 72 h, application rate 200 ppm, L1 larvae, 3 days after infestation, read-out: control in at least one of the three categories (mortality, anti-feedancy or growth inhibition)
Method: Example B1: Activity Against Spodoptera littoralis (Egyptian Cotton Leaf Worm)
Cotton leaf discs were placed on agar in 24-well microtiter plates and sprayed with aqueous test solutions prepared from 10′000 ppm DMSO stock solutions. After drying the leaf discs were infested with five L1 larvae. The samples were assessed for mortality, anti-feedant effect, and growth inhibition in comparison to untreated samples 3 days after infestation. Control of Spodoptera littoralis by a test sample is when at least one of mortality, anti-feedant effect, and growth inhibition is higher than the untreated sample.

[3] = tested on: Plutella xylostella (Diamond Back Moth); test: Example B3: Activity against Plutella xylostella, artificial diet; conditions: 120 h, application rate 200 ppm, L2 larvae, 5 days after infestation, read-out: effect in at least one of the two categories (mortality or growth inhibition)
Method: Example B3: Activity Against Plutella xylostella (Diamond Back Moth)
24-well microtiter plates with artificial diet were treated with aqueous test solutions prepared from 10′000 ppm DMSO stock solutions by pipetting. After drying, the plates were infested with L2 larvae (10 to 15 per well). The samples were assessed for mortality and growth inhibition in comparison to untreated samples 5 days after infestation.

[4] = tested on: Euschistus heros (Neotropical Brown Stink Bug); test: Example B7: Activity against Euschistus heros, sprayed soybean leaf; conditions: 120 h, application rate 200 ppm, N-2 nymphs, 5 days after infestation
Method: Example B7: Activity Against Euschistus heros (Neotropical Brown Stink Bug)
Soybean leaf on agar in 24-well microtiter plates were sprayed with aqueous test solutions prepared from 10′000 ppm DMSO stock solutions. After drying the leaf were infested with N-2 nymphs. The samples were assessed for mortality 5 days after infestation.

CCS(=O)(=O)c1cc(-c2ccc(C(F)(F)F)cc2)cnc1C(=O)Nc1nnc(C(F)(F)C(F)(F)F)s1 [Compound P10]
≥ 80%: percent effect (mortality or growth inhibition) at 200 ppm [1]

CCSc1cc(-n2ccc(C(F)(F)F)n2)cnc1C(=O)N(C)c1nnc(C(F)(F)F)s1 [Compound P16, 3-ethylsulfanyl-N-methyl-5-[3-(trifluoromethyl)pyrazol-1-yl]-N-[5-(trifluoromethyl)-1,3,4-thiadiazol-2-yl]pyridine-2-carboxamide]
≥ 80%: percent control (mortality, anti-feedant effect or growth inhibition) at 200 ppm [2] | percent effect (mortality or growth inhibition) at 200 ppm [1]

CCS(=O)(=O)c1cc(-c2cc(Cl)cc(Cl)c2)cnc1C(=O)N(C)c1nnc(C(F)(F)F)s1 [Compound P24]
≥ 80%: percent control (mortality, anti-feedant effect or growth inhibition) at 200 ppm [2] | percent effect (mortality or growth inhibition) at 200 ppm [3] | percent effect (mortality or growth inhibition) at 200 ppm [1]

CCS(=O)(=O)c1cc(-c2cc(Cl)c(F)c(Cl)c2)cnc1C(=O)N(C)c1nnc(C(F)(F)F)s1 [Compound P27]
≥ 80%: percent control (mortality, anti-feedant effect or growth inhibition) at 200 ppm [2] | percent effect (mortality or growth inhibition) at 200 ppm [3] | percent effect (mortality or growth inhibition) at 200 ppm [1]

CCS(=O)(=O)c1cc(-c2ncc(C#N)cn2)cnc1C(=O)N(C)c1nnc(C(F)(F)F)s1 [Compound P63]
≥ 80%: percent control (mortality, anti-feedant effect or growth inhibition) at 200 ppm [2] | percent effect (mortality or growth inhibition) at 200 ppm [3] | percent effect (mortality or growth inhibition) at 200 ppm [1] | mortality at 200 ppm [4]

CCS(=O)(=O)c1cc(-c2cccc(C#N)n2)cnc1C(=O)N(C)c1nnc(C(F)(F)F)s1 [Compound P50]
≥ 80%: percent control (mortality, anti-feedant effect or growth inhibition) at 200 ppm [2] | percent effect (mortality or growth inhibition) at 200 ppm [3] | percent effect (mortality or growth inhibition) at 200 ppm [1]

CCS(=O)(=O)c1cc(-c2ccc(Cl)cc2)c[n+]([O-])c1C(=O)N(C)c1nnc(C(F)(F)F)s1 [Compound P19, 5-(4-chlorophenyl)-3-ethylsulfonyl-N-methyl-1-oxido-N-[5-(trifluoromethyl)-1,3,4-thiadiazol-2-yl]pyridin-1-ium-2-carboxamide]
≥ 80%: percent control (mortality, anti-feedant effect or growth inhibition) at 200 ppm [2] | percent effect (mortality or growth inhibition) at 200 ppm [3] | percent effect (mortality or growth inhibition) at 200 ppm [1] | mortality at 200 ppm [4]

CCS(=O)(=O)c1cc(-c2ccc(Cl)c(Cl)n2)cnc1C(=O)N(C)c1nnc(C(F)(F)F)s1 [Compound P46]
≥ 80%: percent control (mortality, anti-feedant effect or growth inhibition) at 200 ppm [2] | percent effect (mortality or growth inhibition) at 200 ppm [3] | percent effect (mortality or growth inhibition) at 200 ppm [1]

CCS(=O)(=O)c1cc(-c2ccc(C(F)(F)F)cn2)cnc1C(=O)N(C)c1nnc(C(F)(F)F)s1 [Compound P53]
≥ 80%: percent control (mortality, anti-feedant effect or growth inhibition) at 200 ppm [2] | percent effect (mortality or growth inhibition) at 200 ppm [3] | percent effect (mortality or growth inhibition) at 200 ppm [1]

CCS(=O)(=O)c1ccc(-c2ccc(C(F)(F)F)cc2)nc1C(=O)N(C)c1nnc(C(F)(F)F)s1 [Compound P21, 3-ethylsulfonyl-N-methyl-6-[4-(trifluoromethyl)phenyl]-N-[5-(trifluoromethyl)-1,3,4-thiadiazol-2-yl]pyridine-2-carboxamide]
≥ 80%: percent control (mortality, anti-feedant effect or growth inhibition) at 200 ppm [2] | percent effect (mortality or growth inhibition) at 200 ppm [3] | percent effect (mortality or growth inhibition) at 200 ppm [1]

CCS(=O)(=O)c1ccc(-c2cnc(C(=O)N(C)c3nnc(C(F)(F)F)s3)c(S(=O)(=O)CC)c2)cc1 [Compound P3]
≥ 80%: percent control (mortality, anti-feedant effect or growth inhibition) at 200 ppm [2] | percent effect (mortality or growth inhibition) at 200 ppm [3] | percent effect (mortality or growth inhibition) at 200 ppm [1]

CCS(=O)(=O)c1cc(-c2cncc(C(F)(F)F)c2)cnc1C(=O)N(C)c1nnc(C(F)(F)F)s1 [Compound P55]
≥ 80%: percent control (mortality, anti-feedant effect or growth inhibition) at 200 ppm [2] | percent effect (mortality or growth inhibition) at 200 ppm [1]

CCS(=O)(=O)c1cc(-c2ccc(Cl)cc2)cnc1C(=O)Nc1nnc(C(F)(F)C(F)(F)F)s1 [Compound P13]
≥ 80%: percent effect (mortality or growth inhibition) at 200 ppm [3] | percent effect (mortality or growth inhibition) at 200 ppm [1]

CCSc1cc(-c2ccc(Cl)cc2)cnc1C(=O)N(C)c1nnc(C(F)(F)F)s1 [Compound P1, 5-(4-chlorophenyl)-3-ethylsulfanyl-N-methyl-N-[5-(trifluoromethyl)-1,3,4-thiadiazol-2-yl]pyridine-2-carboxamide]
≥ 80%: percent control (mortality, anti-feedant effect or growth inhibition) at 200 ppm [2] | percent effect (mortality or growth inhibition) at 200 ppm [3] | percent effect (mortality or growth inhibition) at 200 ppm [1] | mortality at 200 ppm [4]

CCS(=O)(=O)c1cc(-c2ccc(Cl)cc2Cl)cnc1C(=O)N(C)c1nnc(C(F)(F)F)s1 [Compound P34]
≥ 80%: percent control (mortality, anti-feedant effect or growth inhibition) at 200 ppm [2] | percent effect (mortality or growth inhibition) at 200 ppm [3] | percent effect (mortality or growth inhibition) at 200 ppm [1] | mortality at 200 ppm [4]

CCS(=O)(=O)c1cc(-c2ccc(-c3ccc(Cl)cc3)cc2)cnc1C(=O)N(C)c1nnc(C(F)(F)F)s1 [Compound P9]
≥ 80%: percent control (mortality, anti-feedant effect or growth inhibition) at 200 ppm [2] | percent effect (mortality or growth inhibition) at 200 ppm [3] | percent effect (mortality or growth inhibition) at 200 ppm [1]

CCS(=O)(=O)c1cc(-c2ccc(C(F)(F)F)cc2)cnc1C(=O)N(C)c1nnc(C(F)(F)C(F)(F)F)s1 [Compound P11]
≥ 80%: percent control (mortality, anti-feedant effect or growth inhibition) at 200 ppm [2] | percent effect (mortality or growth inhibition) at 200 ppm [3] | percent effect (mortality or growth inhibition) at 200 ppm [1] | mortality at 200 ppm [4]

CCS(=O)(=O)c1cc(-c2cccc(C#N)c2)cnc1C(=O)N(C)c1nnc(C(F)(F)F)s1 [Compound P23]
≥ 80%: percent control (mortality, anti-feedant effect or growth inhibition) at 200 ppm [2] | percent effect (mortality or growth inhibition) at 200 ppm [3] | percent effect (mortality or growth inhibition) at 200 ppm [1]

CCS(=O)(=O)c1cc(-n2ccc(C(F)(F)F)n2)cnc1C(=O)N(C)c1nnc(C(F)(F)C(F)(F)F)s1 [Compound P15]
≥ 80%: percent control (mortality, anti-feedant effect or growth inhibition) at 200 ppm [2] | percent effect (mortality or growth inhibition) at 200 ppm [3] | percent effect (mortality or growth inhibition) at 200 ppm [1] | mortality at 200 ppm [4]

CCS(=O)(=O)c1cc(-n2ccc(C(F)(F)F)n2)cnc1C(=O)Nc1nnc(C(F)(F)C(F)(F)F)s1 [Compound P7]
≥ 80%: percent effect (mortality or growth inhibition) at 200 ppm [1]

CCS(=O)(=O)c1cc(-n2ccc(C(F)(F)F)n2)cnc1C(=O)N(C)c1nnc(C(F)(F)F)s1 [Compound P17, 3-ethylsulfonyl-N-methyl-5-[3-(trifluoromethyl)pyrazol-1-yl]-N-[5-(trifluoromethyl)-1,3,4-thiadiazol-2-yl]pyridine-2-carboxamide]
≥ 80%: percent control (mortality, anti-feedant effect or growth inhibition) at 200 ppm [2] | percent effect (mortality or growth inhibition) at 200 ppm [3] | percent effect (mortality or growth inhibition) at 200 ppm [1] | mortality at 200 ppm [4]
